Results from US7696408B2, “Method to enhance Agrobacterium-mediated transformation of plants” (Regents of the University of Minnesota, priority 1999, dated 2010).
Where two headings read alike, the source gives them in different places.

Tests used:
[1] = test system: soybean cot-node explants; assay: GUS transient expression on soybean cot-node explants after 5-day co-cultivation with Agrobacterium (T-DNA delivery); type: cell-based, Glycine max; conditions: for infection after co-cultivation (experiment #9): 400 mg/l in co-cultivation media, MN0901, AGL1 and LBA4404
From the text: For each seedling, the roots and the majority of the hypocotyl were removed approximately 3-5 mm below the cotyledonary node by cutting the hypocotyl with a scalpel (Hinchee et al., 1998). The two cotyledons were then separated by cutting vertically through the hypocotyl region resulting in two explants. The epicotyl was subsequently removed on both explants, including all primary leaves and shoot meristems, and both the axillary bud and cotyledonary node were wounded by cutting about 10 times with a scalpel blade perpendicular to the hypocotyl. After all explants in a set were wounded (about 50), they were placed in a 25×100 mm petri plate containing 50 ml co-culture suspension for 30 minutes or inoculated into the 25 ml co-cultivation/Agrobacterium suspension for 30 minutes. The explants were then cultured on an agar-solidified co-culture media (0.5%) either without the addition of a test agent (e.g., cysteine) in 15×100 mm petri plates on top a sterile Whatman®#1 filter paper; five explants per plate with adaxial side down. Five plates were stacked together and wrapped in Parafilm®M then incubated at either 22° C. or 25° C. for 5 days in the dark.
After 5 days, the explants were washed in a liquid shoot induction media (B5 salts, MSIII iron stock, 3% sucrose, 3 mM MES, and filter sterilized B5 vitamins, 1.67 mg/l BAP, 100 mg/l cefotaxime, and 500 mg/l ticarcillin; pH 5.6) to remove excess Agrobacterium. Seven to ten explants from each cysteine level were washed in liquid shoot induction medium and placed in GUS histochemical stain (Jefferson et al., 1987). These explants were scored for GUS transient expression. Five to ten explants from each group were imbedded into a single 25×100 mm petri plate with solid shoot induction media (0.8% agar and agent, e.g., 400 mg/l cysteine) containing PPT concentrations of 1.33 mg/l, 3.33 mg/l, or 5.0 mg/l for selection. The plates were then incubated in a growth chamber with a fluctuating temperature between 18° C.-30° C. under a 18 hours light/6 hours dark cycle at 90-150 μE/m^2s.
The level of infection was scored using the GUS gene as a phenotypic marker immediately after co-culture and again after 4 weeks in shoot induction media. As it can be difficult to score the explants after co-cultivation due to the variation among explants and, in some cases, a complete staining of the target tissues, 6 categories were formed to assess the success of infection: • 4) None=There were no GUS positive sectors on any of the explants; • 5) Very low=Not all explants have GUS positive sectors, however, some have discrete foci usually seen on the hypocotyl or cot-node region. • 6) Low=More than ¾ the explants have GUS positive sectors in discrete foci on the hypocotyl and the cot-node region, but the foci are not numerous (<20). • 7) Medium=More than ½ the explants have significant GUS positive sectors at the cot-node region and hypocotyl, some seen as long lines of cells or larger sectors. • 8) Good=More than ¾ the explants have significant staining at the hypocotyl, the entire cot-node region, and on the cotyledons. […] Almost all explants have regions that are completely GUS positive. To reduce bias, samples were chosen at random and the level of infection scored before noting the treatment conditions. Samples that were between two categories are marked accordingly; those samples that resembled one category more than another were marked with a capital “X” and the other with a lowercase “x”.
Wounded soybean cot-node explants prepared from the cultivar ‘Bert’ were co-cultivated with Agrobacterium on solid co-cultivation medium containing various levels of cysteine for 5 days.

grape = conditions: Perl et al., 1996; cited from earlier work
[2] = test system: Japonica rice meristem cultures; conditions: individually or in combination; Enríguez-Obregón et al., 1999; cited from earlier work
[3] = test system: soybean cot-node explants; assay: GUS+ sectors, shoots and shoot primordia after 28 days (4 weeks) on shoot induction medium with PPT (stable transformation); type: cell-based, Glycine max; conditions: amended to solid co-cultivation media
Procedure: After 5 days, the explants were washed in a liquid shoot induction media (B5 salts, MSIII iron stock, 3% sucrose, 3 mM MES, and filter sterilized B5 vitamins, 1.67 mg/l BAP, 100 mg/l cefotaxime, and 500 mg/l ticarcillin; pH 5.6) to remove excess Agrobacterium. Seven to ten explants from each cysteine level were washed in liquid shoot induction medium and placed in GUS histochemical stain (Jefferson et al., 1987). These explants were scored for GUS transient expression. Five to ten explants from each group were imbedded into a single 25×100 mm petri plate with solid shoot induction media (0.8% agar and agent, e.g., 400 mg/l cysteine) containing PPT concentrations of 1.33 mg/l, 3.33 mg/l, or 5.0 mg/l for selection. The plates were then incubated in a growth chamber with a fluctuating temperature between 18° C.-30° C. under a 18 hours light/6 hours dark cycle at 90-150 μE/m^2s. The explants were removed from the chamber after 14 days and transferred to fresh shoot induction media containing herbicide selection. During the transfer, the hypocotyl was carefully removed from the developing shoot mass and imbedded into the media with the differentiating tissue flush with the media surface. The plates were placed back into the growth chamber for an additional 2 weeks. At the 4 week time point, explants without de novo shoot production were discarded. The cotyledons were then removed from the differentiating tissue by cutting at the base of the node and the callus trimmed before transferring into shoot elongation media containing MS salts (murashige and Skoog, 1962), MSIII iron stock, 3% sucrose, 3 mM MES, 0.8% agar, and filter sterilized B5 vitamins, 50 mg/l asparagine, 100 mg/l pyroglutamic acid, 1 mg/l zeatin riboside, 0.1 mg/l indole-acetic acid, 0.5 mg/l GA3, 100 mg/l cefotaxime, 500 mg/l ticarcillin, 1.3-5 mg/l PPT; pH 5.6). Also at this time, a percentage of the explants were sliced into about 10 sections and stained for both GUS positive sectors and GUS positive shoots. Every 2 weeks the explants were transferred into new shoot elongation media after removing dead plant tissue and the bottom of the explant cut to encourage shoot elongation of transformed shoots. For the 4 week data, the minimum number of transformation events was recorded. Those explants with a GUS positive sector in the differentiating tissue giving rise to shoots were recorded with the number of transformation events in bold and italicized (FIGS. 2-5). Shoot data was obtained by recording the number of fully formed shoots seen on an explant. […] To determine the effect of adding cysteine to the co-cultivation medium on stable transformation, co-cultured explants were cultured for 28 days on a shoot-inducing medium containing the herbicide, phosphinothricin (PPT). During the 28 day incubation, the explants usually form de novo callus and shoots in the cot-node region in a structure referred to as a callus/shoot pad (FIG. 9). The callus/shoot pads were sliced in approximately 5 mm sections, immersed into GUS histochemical stain, and scored for GUS^+ sectors throughout the callus/shoot pad. […] The formation of transgenic shoot primordia and sectors extending into developing shoot tissues were also scored on 28 day sections of explants co-cultivated on 0 and 400 mg/l cysteine (FIG. 10A). Only those GUS^+ shoot primordia with obvious trichomes, which are characteristic to leaf tissue, or GUS^+ sectors originating and extending into the tissue at the base of developing shoots (referred to hereafter as differentiating tissue) were scored (FIG. 1A2).

[4] = Bert, LBA4404 pTOK233, agent in solid co-cultivation media, concentrations of Table 1, 5-day incubation
[5] = agent added to co-cultivation medium

O[C@H](CS)[C@H](O)CS (racemic) [DTT, dithiothreitol]
GUS+ staining after co-cultivation [1, 4]: increases | Agrobacterium-mediated T-DNA transfer/delivery into cot-node cells [1, 5]: increased | Agrobacterium-mediated T-DNA transfer/delivery into cot-node cells ([1]; agent added to co-cultivation medium, listed as dithiothreitol): Increases | plant viability after Agrobacterium-mediated transformation of grape (grape): increase plant viability

N[C@@H](CSSC[C@H](N)C(=O)O)C(=O)O [L-cystine]
Agrobacterium-mediated T-DNA transfer/delivery into cot-node cells [1, 5]: Increases

O=C1O[C@H]([C@@H](O)CO)C(O)=C1O [Ascorbic acid]
damage and viability of Japonica rice meristem cultures [2]: decreased damage and increased viability

N[C@H](CS)C(=O)O [D-cysteine]
Agrobacterium-mediated T-DNA transfer/delivery into cot-node cells [1, 5]: Increases | GUS+ foci at the 5-day interval ([1]; amended to solid co-cultivation media): increase | GUS+ foci at the 28-day interval [3]: increase

Cc1cc(-c2ccc(S(=O)(=O)O)cc2)c2ccc3c(-c4ccc(S(=O)(=O)O)cc4)cc(C)nc3c2n1 [Bathocuproine disulfonic acid]
GUS+ staining after co-cultivation [1, 4]: increases | Agrobacterium-mediated T-DNA transfer/delivery into cot-node cells [1, 5]: Increases | GUS+ staining with metal chelator ([1]; range from added chelator to added copper or iron): significantly increased

N[C@@H](CCC(=O)N[C@@H](CS)C(=O)NCC(=O)O)C(=O)O [Glutathione]
infection after co-cultivation (experiment #9) [1]: did not result in an increase in infection | GUS+ staining after co-cultivation [1, 4]: increases | Agrobacterium-mediated T-DNA transfer/delivery into cot-node cells [1, 5]: Increases

O=S([O-])([O-])=S.[Na+].[Na+] [Na-thiosulfate, sodium thiosulfate]
Agrobacterium-mediated T-DNA transfer/delivery into cot-node cells [1]: Increases | GUS+ staining after co-cultivation [1]: increases

O=S(=O)(O)c1ccc(-c2ccnc3c2ccc2c(-c4ccc(S(=O)(=O)O)cc4)ccnc23)cc1 [Bathophenanthroline disulfonic acid]
GUS+ staining after co-cultivation [1, 4]: increases | Agrobacterium-mediated T-DNA transfer/delivery into cot-node cells [1, 5]: Increases

O=[N+]([O-])[O-].[Ag+] [silver nitrate]
damage and viability of Japonica rice meristem cultures [2]: decreased damage and increased viability

CSCC[C@H](N)C(=O)O [Methionine]
infection after co-cultivation (experiment #9) [1]: did not result in an increase in infection
